Measured values: patent US20090004145A1, “COMPOSITIONS AND METHODS INVOLVING GENE THERAPY AND PROTEASOME MODULATION” (priority 2006, published 2009)
In brackets after ≈: the same amount, converted by molar mass. Read-outs that look alike come from different tables or passages of the source. *1 amine or outer side, *2 acyl side, *3 side chain or, on linkers, in order; H or OH if unused. Where a SMILES comes first, the peptide text is derived from it. Bridges are numbered along the chain shown (N, C = ends). Roman numbers before positions name the chains, in order. [ ]: non-standard residue; d: D form. Actinocin(9to1) = Cc1c2oc3c(C)ccc(C(=O)[*:1])c3nc-2c(C(=O)[*:2])c(N)c1=O; NMeV = CN[C@H](C(=O)O)C(C)C; Sar = CNCC(=O)O

How the values were obtained:
[1] = cited from earlier work
[2] = humans, intravenous administration; cited from earlier work
[3] = in vivo; cited from earlier work
[4] = cited from earlier work; remark: listed apart in the source
[5] = mice; cited from earlier work
[6] = in vivo; cited from earlier work; remark: listed apart in the source
2008 cells [7] = experiment: Tumor cell killing, trypan blue assay; format: cell-based, human; conditions: CDDP 25 μM, vector 3000 vp/cell, 72 h
Method: FIG. 3. Ad-mda7 plus CDDP treatment sensitizes CDDP-resistant tumor cells. CDDP-resistant (2008/C*13 R) and sensitive (2008) ovarian tumor cells were plated in six-well plates and treated with PBS, CDDP (25 μM) Ad-luc, Ad-mda7 (3000 vp/cell), Ad-mda7 plus CDDP or Ad-luc plus CDDP. Treatment schedule was as follows: pretreatment with CDDP for 1 h, washed with PBS to remove any residual CDDP and then infect with Ad-mda7 for 3 h in serum free medium followed by replenishment of complete medium. Cells were harvested at 72 h after treatment and number of dead cells counted by the trypan blue assay.
FIG. 8. CDDP-resistant tumor cells are more sensitive to Ad-mda7. […] Cells were harvested on day 3 and day 5 after treatment and number of dead cells counted by the trypan blue assay and analyzed for apoptotic markers by western blotting. […]
Next, CDDP-resistant (2008/C*13 R) and sensitive (2008) ovarian tumor cells were plated in six-well plates and treated with PBS, CDDP (25 μM) Ad-luc, Ad-mda7 (3000 vp/cell), Ad-mda7 plus CDDP or Ad-luc plus CDDP. […] Cells were harvested at 72 h after treatment and number of dead cells counted by the trypan blue assay.
CDDP-Resistant Tumor Cells are More Sensitive to Ad-mda7. […] Cells were harvested on day 3 and day 5 after treatment and number of dead cells counted by the trypan blue assay and analyzed for apoptotic markers by western blotting. […]

2008 cells [8] = experiment: XTT cell viability assay of CDDP-treated ovarian cancer cell lines; format: cell-based, human; conditions: CDDP 1 h, then 72 h incubation
Method: (§1) FIG. 1. Determination of IC50 values for CDDP-Treated Ovarian Cancer Cell Lines. Human ovarian tumor (2008 and 2008/C*13R) tumor cells (2×10^3) seeded in 96-well plates were treated with various doses of CDDP (0, 10, 20, 30, 60, 80, 100 μM). After 1 h of treatment, CDDP containing medium was removed and fresh medium added to the wells. Cells were incubated for 72 h following which were subjected to XTT assay to determine cell viability. Untreated cells served as controls.
as §1, with “Determination” for “FIG. 1. Determination”, “controls. […] (FIG. 1)” for “controls.”

2008/C*13R cells = experiment: as above; format: cell-based, human; conditions: CDDP 1 h, then 72 h incubation
Method: as §1
as §1, with “Determination” for “FIG. 1. Determination”, “controls. […] (FIG. 1)” for “controls.”

[9] = usual clinical doses; cited from earlier work
multiple myeloma = conditions: oral administration; cited from earlier work
Hodgkin's disease = conditions: cited from earlier work
[10] = 15 minutes after intravenous administration; cited from earlier work
[11] = tested on: chronic myelogenous leukemia; conditions: adults with previously untreated chronic myelogenous leukemia; cited from earlier work

In the case of `CO[C@@]12[C@H](COC(N)=O)C3=C(C(=O)C(C)=C(N)C3=O)N1C[C@@H]1N[C@@H]12` [Mitomycin], the heat stability ([1]; mitomycin) is listed as “heat stable” and the “clearance from the serum” value [2] is listed as “rapidly cleared”.
For `Cc1c2oc3c(C)ccc(C(=O)N[C@@H]4C(=O)N[C@H](C(C)C)C(=O)N5CCC[C@H]5C(=O)N(C)CC(=O)N(C)[C@@H](C(C)C)C(=O)O[C@@H]4C)c3nc-2c(C(=O)N[C@@H]2C(=O)N[C@H](C(C)C)C(=O)N3CCC[C@H]3C(=O)N(C)CC(=O)N(C)[C@@H](C(C)C)C(=O)O[C@@H]2C)c(N)c1=O` [Actinomycin D] (I: T[dV]P[Sar][NMeV] / II: T[dV]P[Sar][NMeV]; ester I:1-I:C, II:1-II:C; linker I:N-II:N via Actinocin(9to1)), the “passage of the blood-brain barrier” value [3] is listed as “does not pass the blood-brain barrier”.
For Bleomycin, the solubility in water ([1]; bleomycin) is given as “freely soluble in water”, the “administered dose recovered in the urine as active bleomycin” value ([4]; humans) is given as 60% to 70 and the “plasma or serum terminal elimination half-life” value ([4]; patients with creatinine clearance <35 mL per minute, as clearance decreases) is given as “increases exponentially”. The “concentrations in hematopoietic tissue / bone marrow” value [5] was “low concentrations” and the “concentrations in skin, lungs, kidneys, peritoneum and lymphatics” value [5] was “high concentrations”.
In the case of `[NH2][Pt]([NH2])([Cl])[Cl]` [CDDP, Cisplatin], the oral absorption [6] is given as “not absorbed orally”, the percent killing (2008 cells [7]) is given as “similar” and the IC50 (2008 cells [8]) is given as 30 µM. For the same compound, the IC50 (2008/C*13R cells) was 145 µM.
For `CC[C@]1(O)C[C@H]2CN(CCc3c([nH]c4ccccc34)[C@@](C(=O)OC)(c3cc4c(cc3OC)N(C=O)[C@H]3[C@@](O)(C(=O)OC)[C@H](OC(C)=O)[C@]5(CC)C=CCN6CC[C@]43[C@@H]65)C2)C1` [Vincristine], the “peak concentration in plasma” value [9] is listed as “approximately 0.4 mM”.
For `N[C@@H](Cc1ccc(N(CCCl)CCCl)cc1)C(=O)O` [Melphalan, 4-[bis(2-chloroethyl)amino]-L-phenylalanine], the solubility in water ([1]; melphalan) is given as “insoluble in water” and the “patients showing a favorable response” value (multiple myeloma) is given as “about one third to one half”.
In the case of `O=NN(CCCl)C(=O)NCCCl` [Carmustine, 1,3bis-(2-chloroethyl)-1-nitrosourea], the solubility in water ([1]; carmustine) is given as “poorly soluble”.
For `CC[C@]1(O)C[C@@H]2CN(CCc3c([nH]c4ccccc34)[C@@](C(=O)OC)(c3cc4c(cc3OC)N(C)[C@H]3[C@@](O)(C(=O)OC)[C@H](OC(C)=O)[C@]5(CC)C=CCN6CC[C@]43[C@@H]65)C2)C1` [Vinblastine], the “cases with significant improvement” value (Hodgkin's disease) is given as 50 to 90%.
For `O=NN(CCCl)C(=O)NC1CCCCC1` [Lomustine, 1-(2-chloro-ethyl)-3-cyclohexyl-1 nitrosourea], the “ionization at a physiological pH” value ([1]; lomustine) is listed as “relatively unionized”, the “solubility in 10% ethanol” value ([1]; lomustine) is listed as 0.05 mg per ml and the “solubility in absolute alcohol” value ([1]; lomustine) is listed as 70 mg per ml. The solubility in water ([1]; lomustine) was less than 0.05 mg per ml and the tissue levels [10] was “comparable to plasma levels”.
In the case of `CC[C@@]1(O)C(=O)OCc2c1cc1n(c2=O)Cc2cc3ccccc3nc2-1` [Camptothecin], the “solubility (clear yellow solution)” value ([1]; camptothecin in DMSO 1N sodium hydroxide) is given as 50 mg/mL (≈ 144 mM), the storage stability ([1]; camptothecin, 2-8° C., dry, airtight, light-resistant) is given as “at least two” and the water solubility ([1]; camptothecin) is given as “poor water-solubility”.
For `CS(=O)(=O)OCCCCOS(C)(=O)=O` [Busulfan, 1,4-butanediol dimethanesulfonate], the “patients obtaining hematologic remission” value [11] is given as “Approximately 90%”.
